Legend:
human OAT4 = biological target: T1, human OAT4 (Homo sapiens, UniProt Q9NSA0); test: Cellular transport assay, HEK-293 cells expressing human OAT4; details: for TransportTC/TransportMC ratio (net transport ratio): 10 min; for K m: human renal apical uptake OAT4, 5 min incubation, concentrations in Table 1
T1 sequence (Q9NSA0 1-550): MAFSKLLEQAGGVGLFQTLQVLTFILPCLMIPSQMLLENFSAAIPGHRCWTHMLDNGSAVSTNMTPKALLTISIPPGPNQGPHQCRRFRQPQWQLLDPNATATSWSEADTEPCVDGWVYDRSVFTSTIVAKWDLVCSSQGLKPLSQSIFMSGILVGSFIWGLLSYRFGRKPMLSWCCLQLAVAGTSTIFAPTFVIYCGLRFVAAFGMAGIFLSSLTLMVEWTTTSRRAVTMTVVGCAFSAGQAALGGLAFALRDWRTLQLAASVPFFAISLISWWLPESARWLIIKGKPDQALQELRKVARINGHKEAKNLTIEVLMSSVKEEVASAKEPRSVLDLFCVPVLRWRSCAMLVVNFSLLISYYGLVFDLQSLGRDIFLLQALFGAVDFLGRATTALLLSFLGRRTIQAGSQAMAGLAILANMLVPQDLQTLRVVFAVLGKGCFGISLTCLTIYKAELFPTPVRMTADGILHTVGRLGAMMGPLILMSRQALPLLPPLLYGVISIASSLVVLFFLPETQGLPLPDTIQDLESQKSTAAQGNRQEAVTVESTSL
Procedure: (§1) Briefly, HEK-293 cells were grown, at 37°C and 5% CO2, in Dulbecco’s modified Eagle’s medium, which was fortified with 10% fetal bovine serum, 1% minimal essential medium nonessential amino acids, and 1% antibiotic-antimycotic solution. A day before transfection, cells were seeded onto 24-well poly-D-lysine-coated plates at a density of 2 × 10^5 cells per well. After incubation at 37°C and 5% CO2 for 24 h, the expression plasmid and the empty vector were introduced separately into the HEK293 cells with Lipofectamine 2000 transfection reagent (Invitrogen, Carlsbad, CA, United States), according to the manufacturer’s protocol to yield transporter-expressing cells and mock cells, respectively.
(§2) Transport studies were performed 48 h after the transfection. […] Differential uptake between the transfected cells and mock cells was defined as net transport ratio (TransportTC/TransportMC ratio), where TransportTC and TransportMC are the transport rates of a test Danshen compound into transfected and mock cells, respectively. […] The determination was performed under linear uptake conditions by incubation for 5 min. Table 1 summarizes the final concentrations of the test Danshen compounds for different transporters. All the incubation samples were analyzed by liquid chromatography/mass spectrometry.
(§3) GraFit software (version 5.0; Erithacus Software Ltd, Surrey, United Kingdom) was used to determine the K m and V max values by nonlinear regression analysis of initial transport rates as a function of substrate concentration.

human OATP1B1 = biological target: T2, human OATP1B1 (Homo sapiens, UniProt Q9Y6L6); test: Cellular transport assay, HEK-293 cells expressing human OATP1B1; details: for TransportTC/TransportMC ratio (net transport ratio): 10 min
T2 sequence (Q9Y6L6 1-691): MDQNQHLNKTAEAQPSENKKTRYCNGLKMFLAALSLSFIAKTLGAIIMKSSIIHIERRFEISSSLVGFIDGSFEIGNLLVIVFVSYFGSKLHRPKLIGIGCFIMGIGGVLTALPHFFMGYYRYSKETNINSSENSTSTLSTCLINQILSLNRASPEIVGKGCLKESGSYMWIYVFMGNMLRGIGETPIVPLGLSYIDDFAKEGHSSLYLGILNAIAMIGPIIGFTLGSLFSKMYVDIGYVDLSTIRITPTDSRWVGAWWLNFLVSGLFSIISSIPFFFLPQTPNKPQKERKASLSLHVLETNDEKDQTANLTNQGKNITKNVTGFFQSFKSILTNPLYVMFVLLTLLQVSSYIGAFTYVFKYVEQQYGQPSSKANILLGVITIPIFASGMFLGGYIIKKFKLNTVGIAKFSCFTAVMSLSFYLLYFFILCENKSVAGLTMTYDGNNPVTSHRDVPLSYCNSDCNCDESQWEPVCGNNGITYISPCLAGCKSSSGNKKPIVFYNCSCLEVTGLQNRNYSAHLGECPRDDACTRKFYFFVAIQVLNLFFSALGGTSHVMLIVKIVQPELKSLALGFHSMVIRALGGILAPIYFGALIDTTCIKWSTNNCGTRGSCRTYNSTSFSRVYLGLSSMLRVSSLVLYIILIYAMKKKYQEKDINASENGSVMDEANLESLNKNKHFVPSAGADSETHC
Procedure: as §1, §2, §3

rat Oat1 = biological target: T3, rat Oat1 (Rattus norvegicus, UniProt O35956); test: Cellular transport assay, HEK-293 cells expressing rat Oat1; details: for TransportTC/TransportMC ratio (net transport ratio): 10 min; for K m: rat renal basolateral uptake Oat1, 5 min incubation, concentrations in Table 1
T3 sequence (O35956 1-551): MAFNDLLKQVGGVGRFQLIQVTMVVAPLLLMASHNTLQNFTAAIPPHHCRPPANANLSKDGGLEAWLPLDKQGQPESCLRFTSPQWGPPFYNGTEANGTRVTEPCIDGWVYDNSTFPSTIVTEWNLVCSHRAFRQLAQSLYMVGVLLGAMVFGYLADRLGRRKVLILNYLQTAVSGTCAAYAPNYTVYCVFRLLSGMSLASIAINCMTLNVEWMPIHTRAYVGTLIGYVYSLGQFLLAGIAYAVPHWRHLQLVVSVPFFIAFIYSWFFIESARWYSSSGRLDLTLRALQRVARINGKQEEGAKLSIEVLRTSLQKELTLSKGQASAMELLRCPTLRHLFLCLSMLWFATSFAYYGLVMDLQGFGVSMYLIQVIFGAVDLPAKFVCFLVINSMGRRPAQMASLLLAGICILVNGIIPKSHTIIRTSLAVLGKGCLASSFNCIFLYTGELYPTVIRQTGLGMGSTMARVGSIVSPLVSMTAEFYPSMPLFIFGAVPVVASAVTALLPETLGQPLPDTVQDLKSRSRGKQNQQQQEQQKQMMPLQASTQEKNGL
Procedure: as §1, §2, §3

rat Oat3 = biological target: T4, rat Oat3 (Rattus norvegicus, UniProt Q9R1U7); test: Cellular transport assay, HEK-293 cells expressing rat Oat3; details: for TransportTC/TransportMC ratio (net transport ratio): 10 min; for K m: rat renal basolateral uptake Oat3, 5 min incubation, concentrations in Table 1
T4 sequence (Q9R1U7 1-536): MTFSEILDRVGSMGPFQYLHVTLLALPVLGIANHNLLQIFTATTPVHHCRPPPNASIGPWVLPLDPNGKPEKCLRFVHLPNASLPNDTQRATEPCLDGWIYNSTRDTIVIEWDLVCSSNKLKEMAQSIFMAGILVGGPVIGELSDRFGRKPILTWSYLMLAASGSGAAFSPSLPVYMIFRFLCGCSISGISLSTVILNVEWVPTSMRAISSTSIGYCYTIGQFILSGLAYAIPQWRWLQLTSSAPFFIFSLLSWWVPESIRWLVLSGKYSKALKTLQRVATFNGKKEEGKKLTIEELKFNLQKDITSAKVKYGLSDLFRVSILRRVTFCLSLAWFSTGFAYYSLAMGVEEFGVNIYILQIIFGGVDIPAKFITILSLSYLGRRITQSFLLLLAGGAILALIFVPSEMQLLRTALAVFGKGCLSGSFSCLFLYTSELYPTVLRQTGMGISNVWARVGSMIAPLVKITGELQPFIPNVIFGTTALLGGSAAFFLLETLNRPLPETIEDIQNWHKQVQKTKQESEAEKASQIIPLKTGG
Procedure: as §1, §2, §3

[1] = Danshen phenolic acid at 100 μM final concentration, human OAT4-transfected vs mock cells
[2] = Danshen phenolic acid at 100 μM final concentration, human OATP1B1-transfected vs mock cells
[3] = human hepatic sinusoidal uptake OATP1B1, 5 min incubation, concentrations in Table 1
[4] = Danshen phenolic acid at 100 μM final concentration, rat Oat1-transfected vs mock cells
[5] = Danshen phenolic acid at 100 μM final concentration, rat Oat3-transfected vs mock cells

| Molecule | TransportTC/TransportMC ratio (net transport ratio) (human OAT4; [1]) | substrate of human OATP1B1 (human OATP1B1) | TransportTC/TransportMC ratio (net transport ratio) (human OATP1B1; [2]) | K m (human OATP1B1; [3]) | TransportTC/TransportMC ratio (net transport ratio) (rat Oat1; [4]) | TransportTC/TransportMC ratio (net transport ratio) (rat Oat3; [5]) | K m (rat Oat1) | K m (rat Oat3) | substrate of rat Oat3 (rat Oat3) | further results |
| --- | --- | --- | --- | --- | --- | --- | --- | --- | --- | --- |
| O=C(/C=C/c1ccc(O)c2c1[C@H](C(=O)O)[C@@H](c1ccc(O)c(O)c1)O2)O[C@H](Cc1ccc(O)c(O)c1)C(=O)O [Lithospermic acid, lithospermic acid] | 2.91 ± 0.17 | substrates | 3.99 ± 0.24 | 428 ± 67 µM | 1.36 ± 0.35 | 0.94 ± 0.23 |  |  |  | microsomal CLint (human OATP1B1; human): 0.06 µL/min/mg |
| O=C(O)c1ccc(O)c(O)c1 [Protocatechuic acid, protocatechuic acid] | 1.56 ± 0.46 |  | 0.83 ± 0.14 |  | 104 ± 20 | 16.1 ± 2.8 | 110 ± 19 µM | 117 ± 27 µM |  | microsomal CLint (rat Oat1; rat): 4.07 µL/min/mg; microsomal CLint (rat Oat3; rat): 0.57 µL/min/mg |
| O=C(/C=C/c1ccc(O)c(O)c1)O[C@H](Cc1ccc(O)c(O)c1)C(=O)O [Rosmarinic acid, rosmarinic acid] |  | substrates |  |  |  |  | 59.2 ± 4.7 µM | 24.0 ± 4.2 µM | substrates | substrate of human OAT4 (human OAT4): relatively weak substrates; K m (human OAT4): 325 ± 53 µM; TransportTC/TransportMC ratio (net transport ratio) (human OAT4; human, 100 μM): 7.27 ± 0.77; microsomal CLint (human OAT4; human, other cell line): 0.15 µL/min/mg; TransportTC/TransportMC ratio (net transport ratio) (human OATP1B1; human, 100 μM): 4.00 ± 0.43; microsomal CLint (human OATP1B1; human, other cell line): 0.07 µL/min/mg; substrate of rat Oat1 (rat Oat1): substrates; TransportTC/TransportMC ratio (net transport ratio) (rat Oat1; rat, 100 μM): 150 ± 46; microsomal CLint (rat Oat1; rat, other cell line): 3.47 µL/min/mg; TransportTC/TransportMC ratio (net transport ratio) (rat Oat3; rat, 100 μM): 4.45 ± 1.12; microsomal CLint (rat Oat3; rat, other cell line): 0.15 µL/min/mg |
| O=C(/C=C/c1ccc(O)c(O)c1/C=C/c1ccc(O)c(O)c1)O[C@H](Cc1ccc(O)c(O)c1)C(=O)O [Salvianolic acid A, salvianolic acid A] |  | not a substrate |  |  |  |  |  |  | not substrates | TransportTC/TransportMC ratio (net transport ratio) (human OAT4; human, 100 μM): 1.56 ± 0.23; TransportTC/TransportMC ratio (net transport ratio) (human OATP1B1; human, 100 μM): 1.21 ± 0.33; substrate of rat Oat1 (rat Oat1): not substrates; TransportTC/TransportMC ratio (net transport ratio) (rat Oat1; rat, 100 μM): 1.13 ± 0.64; TransportTC/TransportMC ratio (net transport ratio) (rat Oat3; rat, 100 μM): 1.09 ± 0.35 |
| O=C(O)Cc1c(/C=C/C(=O)O[C@H](Cc2ccc(O)c(O)c2)C(=O)O)ccc(O)c1O [Salvianolic acid D, salvianolic acid D] | 2.87 ± 0.09 | substrates | 5.38 ± 0.83 | 403 ± 85 µM | 11.5 ± 2.9 | 1.41 ± 0.36 | 24.4 ± 3.3 µM |  | not of rat Oat3 | microsomal CLint (human OATP1B1; human): 0.22 µL/min/mg; microsomal CLint (rat Oat1; rat): 4.72 µL/min/mg |
| O=C(O)C(O)Cc1ccc(O)c(O)c1 (stereo not drawn) [Tanshinol, tanshinol] |  |  |  |  |  |  | 154 ± 13 µM | 3,760 ± 907 μM |  | K m (human OAT4): 3,442 ± 940 μM; microsomal CLint (rat Oat1; rat, other cell line): 4.13 µL/min/mg; microsomal CLint (rat Oat3; rat, other cell line): 0.07 µL/min/mg |
| salvianolic acid B | 0.95 ± 0.23 | substrates | 5.16 ± 1.30 | 58.9 ± 6.2 µM | 1.56 ± 0.67 | 1.12 ± 0.41 |  |  |  | CLint (human OATP1B1; human hepatic sinusoidal uptake OATP1B1): 0.46 μL/min/mg protein; V max (human OATP1B1; [3]): 28.1 ± 1.2 pmol/min/mg protein |

From PMC9127186, “Molecular Basis Underlying Hepatobiliary and Renal Excretion of Phenolic Acids of Salvia miltiorrhiza Roots (Danshen)” (Frontiers in Pharmacology, 2022)
